Consider three compounds from patent publication US10918648B2, “Estrogen receptor modulator combinations” (The Regents of the University of California, priority 2016, dated 2021).

pIC50: −log10 of the molar value. Like-named read-outs stand apart in the source and are kept apart here.

What all share (format): cell-based, human
The test system of one assay is H1975 NSCLC cells. The assay is described as follows: NSCLC cell proliferation in vitro (MTS assay). The following applies: 72 hours. How it is done:
(§1) Cell culture: Human breast and non-small cell lung cancer cells (MCF7, ZR75-1, MDAMB231, A549, H23, H1975, […]) were from ATCC. MCF7-HER2 were a kind gift of Dr. Dennis Slamon (23). Cell lines were routinely maintained in RPMI 1640 or DMEM medium with 10% fetal bovine serum (FBS) (Sigma-Aldrich) and 1% Antibiotic-Antimycotic solution 100× (Mediatech, Herndon, Va.). When indicated, for estrogen-free conditions, media was changed 48 h before experiments to phenol-red free RPMI 1640/DMEM with 1% dextran-coated, charcoal-treated (DCC)-FBS (24,25). Otherwise experiments were performed in phenol-red free RPMI 1640/DMEM medium with 5% DCC-FBS.
(§2) Cell proliferation assays: breast and lung tumor cells (between […]) were plated in 96 well plates using their respective medium with 10% FBS. For experiments using estradiol-17β, cells were rinsed with PBS and incubated with phenol redfree medium with 1% DCC-FBS for 48 hours as described before (24,25). Cells were then treated with different concentrations of SERDs ranging between 0.0001-100 μM. […] Cell counts and viability tests (Trypan blue) were done every 24 hr for 3 days. After 72 hr, proliferation was assessed with the MTS Assay CELLTITER 96® Aqueous Cell Proliferation Assay (Promega) or the Cell Proliferation ELISA, BrdU colorimetric assay (Roche). For the MTS, the absorbance of the formazan product was measured at 490 nanometer using the iMARK microplate reader from BIORAD. The BrdU ELISA assay is based on detection of BrdU incorporated into the genomic DNA of proliferating cells and an anti-BrdU antibody, the reaction product was quantified by measuring the absorbance at 370 nanometers using iMARK microplate reader from BIORAD. Cell numbers were also assessed initially by cell counts to confirm MTS/BrdU data. Experiments were done at least three times to confirm data.

The test system of the next assay is H2122 NSCLC cells. Put plainly: NSCLC cell proliferation in vitro (MTS assay). The following applies: 72 hours. How it is done: as §1, §2
For assay [1], the system named is MCF-7 breast cancer cells. The assay is described as follows: MCF-7 breast cancer cell proliferation (BrdU ELISA) in presence of estradiol-17β. The conditions noted are these: for pIC50: Homo sapiens, MCF7, 72 hrs in the presence of 1 nM estradiol-17β, BrdU ELISA, read-out: IC50 for inhibition of cell proliferation, MCF-7; for inhibition of MCF-7 cell proliferation/survival: 1 μM or 50 μM antiestrogen in the presence of 1 nM estradiol, 1% DCC-FBS, FIG. 2A. How it is done: In experiments to assess potential proliferative effects of novel estrogen receptor ligands, human breast cancer cells were grown in phenol red-free, estrogen-free media with 1% dextran-coated charcoal-treated (DCC)-fetal bovine serum (FBS) for 48 hrs (15,44), then treated with either 1 μM or 50 μM doses of estrogen receptor antagonists in the presence of 1 nM estradiol-17β. Cell counts and viability tests (Trypan blue) were done every 24 hr for 3 days. After 72 hr, proliferation was assessed using the BrdU Cell proliferation ELISA (Roche). Cell numbers were also assessed initially by cell counts to confirm ELISA data. Each antiestrogen was tested at least in three different experiments.
In order to assess the antitumor action of novel estrogen receptor antagonists, we cultured human MCF-7 breast cancer cells with known expression of ERα. Cells were grown in 1% DCC-FBS for 48 hr and then treated with vehicle control or either 1 μM or 50 μM concentrations of antiestrogens JD 101-160 or the pure antiestrogen fulvestrant (FAS), all in the presence of 1 nM estradiol-170. […] Shown in FIG. 2A are results from MCF-7 cells grown in 1% DCC-FBS for 48 hr and then treated with vehicle control, 1 nM estradiol-170 and either 1 μM or 50 μM concentrations of antiestrogens JD 101-160 or the known pure antiestrogen fulvestrant (FAS) in the presence of 1 nM estradiol-170. Cell proliferation is expressed as percentage of that determined in the 1 nM estradiol-170-treated control group.
as §2
Background: Incorporation of labelled thymidine or its analogues reports DNA synthesis.

[2] abbreviates: Homo sapiens, NCI-H1975, SERD alone, estrogen-depleted phenol red-free medium with 5% DCC-FBS, read-out: IC50 for inhibition of NSCLC cell proliferation, H1975.
[3] abbreviates: in the presence of 1 μM palbociclib, 5% DCC-FBS, read-out: IC50 of SERD for inhibition of NSCLC cell proliferation, H1975.
[4] abbreviates: Homo sapiens, NCI-H2122, SERD alone, estrogen-depleted phenol red-free medium with 5% DCC-FBS, read-out: IC50 for inhibition of NSCLC cell proliferation, H2122.
Where [5] appears, read: in the presence of 1 μM abemaciclib, 5% DCC-FBS, read-out: IC50 of SERD for inhibition of NSCLC cell proliferation, H2122.
The mark [6] stands for this setting: in the presence of 1 μM palbociclib, 5% DCC-FBS, read-out: IC50 of SERD for inhibition of NSCLC cell proliferation, H2122.

Turning to `C[C@]12C[C@H](Oc3ccc(N)cc3)[C@@H]3c4ccc(O)cc4CC[C@H]3[C@@H]1CC[C@@H]2O` [JD105, (8S,9S,11S,13S,14S,17S)-11-(4-aminophenoxy)-13-methyl-7,8,9,11,12,13,14,15,16,17-decahydro-6H-cyclopenta[a]phenanthrene-3,17-diol], the pIC50 with H1975 NSCLC cells (setting [2]) is 5.35; in the assay with H1975 NSCLC cells (in the presence of 1 μM abemaciclib, 5% DCC-FBS, read-out: IC50 of SERD for inhibition of NSCLC cell proliferation, H1975), 5.97; with H1975 NSCLC cells (setting [3]), 5.32; in the assay on H2122 NSCLC cells (setting [4]), 5.42; with H2122 NSCLC cells (setting [5]), 5.83; with H2122 NSCLC cells (setting [6]) it was 5.38. In assay [1], the pIC50 was 5.67.
In the case of `C[C@]12C[C@H](Oc3ccc(N)c(C(F)(F)F)c3)[C@@H]3c4ccc(O)cc4CC[C@H]3[C@@H]1CC[C@@H]2O` [JD128, (8S,9S,11S,13S,14S,17S)-11-(4-Amino-3-(trifluoromethyl)phenoxy)-13-methyl-7,8,9,11,12,13,14,15,16,17-decahydro-6H-cyclopenta[a]phenanthrene-3,17-diol], the pIC50 with H1975 NSCLC cells (setting [3]) was 4.91; with H2122 NSCLC cells (setting [4]), 5.88; with H2122 NSCLC cells (setting [5]) it was 6.64; with H2122 NSCLC cells (setting [6]), 6.02; in assay [1], 6.96. Moreover, the “inhibition of MCF-7 cell proliferation/survival” value in assay [1] was “significant inhibition”.
As to `C[C@]12C[C@H](Oc3ccc(NC(=O)CCCCN4CCCCC4)c(F)c3)[C@@H]3c4ccc(O)cc4CC[C@H]3[C@@H]1CC[C@@H]2O` [JD140, N-(4-(((8S,9S,11S,13S,14S,17S)-3,17-Dihydroxy-13-methyl-7,8,9,11,12,13,14,15,16,17-deca-hydro-6H-cyclopenta[a]phenanthren-11-yl)oxy)-2-fluorophenyl)-5-(piperidin-1-yl)pentan-amide], the pIC50 with H1975 NSCLC cells (setting [2]) is 5.73; with H1975 NSCLC cells (setting [3]), 4.77; with H2122 NSCLC cells (setting [4]), 5.94; in the assay on H2122 NSCLC cells (setting [5]), 7.52; in the assay on H2122 NSCLC cells (setting [6]), 5.95; in assay [1], 6.49. In addition, in assay [1], the “inhibition of MCF-7 cell proliferation/survival” value is “significant inhibition”.
